Results published in patent US20250151728A1, “ANTIMICROBIAL SYSTEM WITH BETA CARBOLINE ALKALOID AND INDOLE ALKALOID AND COMPOSITIONS COMPRISING THEM” (Conopco, Inc., d/b/a UNILEVER, priority 2021, published 2025).

Columns and labels:
[1] = test system: Enterobacter gergoviae ATCC 33028; assay: Liquid broth assay (MIC and checkerboard) against Enterobacter gergoviae; type: cell-based; conditions: Pluralibacter gergoviae, ATCC33028, component by itself, 30° C., 24 hours, MIC = <25% growth vs control (OD600nm), read-out: minimal inhibitory concentration (MIC)
Text: (§1) Naturally derived antimicrobial systems were made, as shown below by combining the indole alkaloid and beta carboline alkaloid. Two pools were set up and each pool contained 1 organism. The strains involved were Enterobacter gergoviae ATCC 33028 of the family Pluralibacter gergoviae, a Gram-negative and Aspergillus brasiliensis ATCC 16404. FIC test range was 16 times greater than the projected MIC for each sample.
(§2) The differing behaviors of inhibitory antimicrobials in isolation and mixtures have been widely explored using the concept of the Fractional Concentration and Fractional Inhibitory Concentration (FIC). See for instance JRW Lambert and R Lambert, J. Appl. Microbiol 95, 734 (2003); T. Jadavji, CG Prober and R Cheung, Antibacterial Agents and Chemotherapy 26, 91 (1984), and WO 2004/006876. MIC is the minimum inhibitory concentration a component prevents visible growth of a microbe. The FC and FIC parameters can be defined as follows: […]
(§3) Liquid broth assays (MIC and checkerboard) were conducted to identify the minimum concentration(s) of individual and binary combinations of natural preservation materials. […] Each of the two-preservation chemical/broth mixes was then combined in a third 96 well plate at varying concentrations and then inoculated with 1-5×10^6 microorganisms and incubated at 30° C. for 24 hours, after which optical densities at OD600nm were measured.

[2] = test system: Aspergillus brasiliensis ATCC 16404; assay: Liquid broth assay (MIC and checkerboard) against Aspergillus brasiliensis; type: cell-based; conditions: ATCC16404, component by itself, 30° C., 24 hours, MIC = <25% growth vs control (OD600nm)
Text: as §1, §2, §3

CN(C)Cc1c[nH]c2ccccc12 [Gramine, 1-(1H-Indol-3-yl)-N,N-dimethylmethanamine]
MIC [1]: 6250 µg/mL
MIC [2]: 6250 µg/mL
